Test results published in patent USRE40594E1, “Inhibitors of the bitter taste response” (Mount Sinai School of Medicine of New York University, priority 1998, dated 2008).
“Also recorded” adds a separate entry of the source.

Columns and labels:
[1] = tested on: bovine taste receptor cell membranes (taste receptors) with transducin; test: G protein activation assay (trypsin sensitivity): activation of transducin by bitter tastant plus taste membranes; format: biochemical, Bovine (Bos primigenius)
From the text: Taste receptor is contacted with gustducin or transducin and tastant, in the presence or absence of test inhibitor, under conditions suitable for activation of the G-protein present. […] In specific non-limiting embodiments, a subunits of transducin or gustducin may be combined with βγ subunits prior to this step, as set forth above. To the reaction mixture comprising taste receptors and gustducin or transducin, test inhibitor and/or bitter tastant may be added, and the resulting solution incubated to permit interaction of the elements.
In preferred embodiments, activation is assessed by a trypsin digestion assay. […] In a specific, non-limiting example, to perform a trypsin digestion assay according to the invention, TPCK-treated trypsin (1:25 trypsin to total protein in the reaction mixture) may be added, and the digestion may be performed at room temperature for about 15 minutes and stopped by adding soybean trypsin inhibitor (6:1 mol/mol inhibitor to trypsin). […] The separated polypeptides may then be transferred by electro-blotter to a poly (vinylidene difluoride) membrane blocked by the addition of 5% BLOTTO [50 mM Tris-HCI, pH 7.4/100 mM NaCl/5% nonfat dry milk], (30 min). G-protein peptides may then be visualized by binding of antibody directed toward transducin or gustducin, followed, for example, by binding of a detectably labeled secondary antibody. If a horseradish peroxidase-labeled secondary antibody is used, binding may be visualized by developing with bicinchoninic acid staining reagents and exposure to x-ray film.
G Protein Activation Assays. Bovine (Bos primigenius) tongues were collected fresh from a local slaughterhouse and transported on ice to the laboratory. Circumvallate papillae were hand dissected, frozen in liquid nitrogen, and stored at −80° C. until use. […] The pelleted membranes were rinsed twice, resuspended in homogenization buffer lacking protease inhibitors, and further homogenized by 20 passages through a 25-gauge needle. Aliquots were either flash frozen or stored on ice until use. […] The separated polypeptides were transferred by electro-blotter to a poly (vinylidene difluoride) membrane, which was blocked by the addition of 5% BLOTTO [50 mM Tris-HCI, pH 7.4/100 mM NaCl/5% nonfat dry milk], (30 min), then transducin peptides were visualized by binding of transducin antiserum and horseradish peroxidase-labeled goat anti-rabbit secondary antibody, followed by developing with bicinchoninic acid staining reagents from Bio-Rad and exposure to x-ray film.
Chemicals. All bitter tastant and buffer chemicals were of the highest purity available and were purchased either from Sigma or Boehringer Mannheim, unless otherwise noted. […] The rabbit polyclonal antitransducin antibody was a kind gift of Mel Simon and John Watson (California Institute of Technology, Pasadena, Calif.).

[2] = tested on: glossopharyngeal nerve responses of C57BL/6J mice; test: Glossopharyngeal nerve recording on lingual stimulation with tastants; format: in vivo
Protocol: Nerve Recording. Glossopharyngeal nerve responses were recorded from male C57BL/6J mice as previously described (Ninomiya, Y., et al., 1997, Am. J. Physiol. (London) 272:R1002-RI006). Each mouse was anesthetized with intraperitoneal injection of sodium pentobarbital (40-50 mg/kg) and maintained at a surgical level of anesthesis with supplemental injections of the drug. The trachea was cannulated, and the mouse was then fixed in the supine position with a head holder to allow dissection of the glossopharyngeal nerve. The hypoglossal nerve was transected bilaterally to prevent inadvertent tongue movements. The right glossopharyngeal nerve was exposed by removal of the digastric muscle and posterior horn of the hyoid bone. The glossopharyngeal nerve was then dissected free from underlying tissues and cut near its entrance to the posterior foramen lacerum. The entire nerve was placed on a silver wire electrode for whole nerve recording. An indifferent electrode was positioned nearby in the wound. […] Whole nerve responses were integrated by using an RMS-DC converter (Hendrick, Tallahassee, Fla.) with a time constant of 0.5 s. For chemical stimulation of the circumvallate and foliate papillae, an incision was made on each side of the animal's face from the comer of the mouth to just above the angle of the jaw, the papillae were exposed, and their trenches opened via slight tension applied through a small suture sewn in the tip of the tongue. Tastant solutions were delivered to the tongue by gravity flow, and flowed over the tongue for a controlled period. The stability of each preparation was monitored by the periodic application of 0.1 M NH4Cl. A recording was considered to be stable when the 0.1 M NH4Cl response magnitudes at the beginning and end of each stimulation series deviated by no more than 15%. Only responses from stable recordings were used in the data analysis. In the analysis of whole nerve responses, the magnitudes of the integrated response at 20, 25, 30, 35. and 40 s after stimulus onset were measured and averaged to generate tonic responses: the tonic response represents the sustained nerve response to continuous tastant stimulation of taste receptor cells. The relative tonic response for each stimulus was obtained by normalization to the response from 0.1 M NH4Cl (the tonic response of NH4Cl was defined as 1.0). Student's t test was used for statistical analysis.

## Nc1ncnc2c1ncn2[C@@H]1O[C@H](COP(=O)(O)O)[C@@H](O)[C@H]1O [AMP, adenosine 5′ monophosphate]
[1]; 1.0 mM QUI, AMP 0.01-2.5 mM, FIG. 1B
  inhibition of activation of transducin by QUI plus bovine taste membranes: inhibit; also recorded: inhibited in a dose-dependent fashion
[1]; AMP 2.5 mM, ATR 5.0 mM, FIG. 1C
  inhibition of taste membrane-dependent activation of transducin by atropine hydrochloride: inhibits; also recorded: inhibitory effect
[1]; AMP 2.5 mM, DEN 5.0 mM, FIG. 1C
  inhibition of taste membrane-dependent activation of transducin by DEN: inhibits; also recorded: inhibitory effect
[1]; AMP 2.5 mM, NIC 5.0 mM, FIG. 1C
  inhibition of taste membrane-dependent activation of transducin by nicotine hemisulfate: inhibits; also recorded: inhibitory effect
[1]; AMP 2.5 mM, QUI 1.0 mM, FIG. 1C
  inhibition of taste membrane-dependent activation of transducin by QUI: inhibits; also recorded: inhibitory effect
[1]; AMP 2.5 mM, STR 5.0 mM, FIG. 1C
  inhibition of taste membrane-dependent activation of transducin by strychnine hydrochloride: inhibits; also recorded: inhibitory effect
[1]; DEN, QUI and other bitter compounds, concentrations not given
  inhibition of in vitro activation of transducin (G-protein) by taste membranes plus bitter compounds, summary statement: inhibits
[1]; concentrations not given
  inhibition of taste membrane activation of transducin by caffeic acid: inhibitory effect
  inhibition of taste membrane activation of transducin by naringin: inhibitory effect
  inhibition of taste membrane activation of transducin by quinacrine: inhibitory effect
  inhibition of taste membrane activation of transducin by sparteine: inhibitory effect
[1]; inhibitor 0.25, 0.5, 1.25, 2.5, 5.0 mM, DEN 5.0 mM, shift from 32-kDa to 23-kDa fragments, FIG. 1A/1E
  inhibition of activation of transducin by DEN plus bovine taste receptor membranes: inhibit; also recorded: inhibited in a dose-dependent fashion
[2]; 1.0 mM ATR, inhibitor 0.1 mM, FIGS. 4A-C
  inhibition of glossopharyngeal nerve responses to atropine: significantly inhibited
[2]; 1.0 mM SPA, inhibitor 0.1 mM, FIGS. 4A-C, 4I (P<0.001)
  inhibition of glossopharyngeal nerve responses to sparteine: inhibits; also recorded: significantly inhibited
[2]; 1.0 mM STR, inhibitor 0.1 mM, FIGS. 4A-C
  inhibition of glossopharyngeal nerve responses to strychnine: significantly inhibited
[2]; 3.0 mM SC45647, 0.1 mM AMP, P<0.01, FIG. 4I
  effect on glossopharyngeal nerve responses to SC45647: inhibits; also recorded: inhibited slightly; also recorded: did diminish
[2]; 5.0 mM DEN, inhibitor 0.1 mM, FIGS. 4A-C
  inhibition of glossopharyngeal nerve responses to DEN: significantly inhibited
[2]; 5.0 mM HCl, 0.1 mM AMP, FIG. 4I
  effect on glossopharyngeal nerve responses to HCl: did not affect
[2]; 0.1 M NH4Cl, 0.1 mM AMP
  effect on glossopharyngeal nerve responses to NH4Cl: did not affect
[2]; 0.1 M NaCl, 0.1 mM AMP, FIG. 4I
  effect on glossopharyngeal nerve responses to NaCl: did not affect
[2]; 0.5 M sucrose, 0.1 mM AMP, FIG. 4I
  effect on glossopharyngeal nerve responses to sucrose: did not affect
[2]; DEN 0.1, 0.5, 1.0, 5.0, 10.0 mM, AMP 0.1 and 1.0 mM, n=5 to 7, FIG. 4G
  inhibition of relative tonic glossopharyngeal responses to rising DEN concentrations: significantly inhibited
[2]; DEN, QUI and other bitter compounds
  inhibition of gustatory (glossopharyngeal) nerve responses to bitter compounds, summary statement: diminishes
[2]; QUI 0.1, 0.3, 1.0 mM, AMP 0.1 and 1.0 mM, n=6 to 8, FIG. 4H
  inhibition of relative tonic glossopharyngeal responses to rising QUI concentrations: significantly inhibited; also recorded: reached a plateau
[2]; QUI 0.1 and 1.0 mM, inhibitor 0.1 mM, FIGS. 4D-F
  inhibition of glossopharyngeal nerve responses to QUI: significantly inhibited
